Measurements as given in patent publication EP1988087A1, “Novel 5-cyano-prostacyclin derivatives and their use as agents for the treatment of autoimmune diseases” (Bayer Schering Pharma Aktiengesellschaft, priority 2007, dated 2008).

Biological target: EP4 receptor (Homo sapiens, UniProt P35408)
Assay: cAMP accumulation assay in cells expressing EP4 (Biological Example 1, diol derivative)
Type: cell-based
Conditions: cAMP luminescence, mean of triplicate
Experimental: Commercial cAMP accumulation assays are typically competitive immunoassays in which free cAMP from cell lysates competes for antibody binding against a "labeled" cAMP molecule. This positive signal is generated in direct proportion to the amount of free cAMP. In our assays cAMP standards and samples are pipetted into the wells of a microplate. An antibody specific cAMP is added to the wells. A substrate is added to the wells and luminescence develops in proportion to the amount of cAMP which accumulated during treatment of cells which express the EP4 receptor with standards and samples. The intensity of the luminescence is measured in a luminometer.
The response of the EP4 expressing cells treated with the diol derivative is compared to Nileprost. Results shown are the mean of triplicate determinations.

Chain of EP4 receptor (P35408 whole entry): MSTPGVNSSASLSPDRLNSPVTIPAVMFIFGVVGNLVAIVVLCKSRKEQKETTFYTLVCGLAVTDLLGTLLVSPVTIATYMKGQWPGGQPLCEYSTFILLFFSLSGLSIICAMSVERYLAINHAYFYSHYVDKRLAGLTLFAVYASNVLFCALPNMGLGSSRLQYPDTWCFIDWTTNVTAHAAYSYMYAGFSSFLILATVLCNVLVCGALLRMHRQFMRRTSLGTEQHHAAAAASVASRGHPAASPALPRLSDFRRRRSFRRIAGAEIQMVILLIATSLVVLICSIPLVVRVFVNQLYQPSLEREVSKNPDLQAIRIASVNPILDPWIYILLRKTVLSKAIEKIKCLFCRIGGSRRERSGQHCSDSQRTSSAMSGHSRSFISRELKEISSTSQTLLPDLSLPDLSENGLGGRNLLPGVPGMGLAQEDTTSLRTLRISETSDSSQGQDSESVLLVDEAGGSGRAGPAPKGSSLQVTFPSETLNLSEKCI

How did the RLU - background (compound 0.010 nM) turn out when `CCCCC(C)[C@H](O)/C=C/[C@@H]1[C@H]2C/C(=C(\C#N)CCCC(=O)O)O[C@H]2C[C@H]1O` (stereo partly drawn) [Nileprost, 5-cyano-16-methylprostacyclin] was run?
Its RLU - background is 0 RLU.

And the RLU - background (compound 0.152 nM)?
Its RLU - background is 850786 RLU.

And the RLU - background (compound 0.457 nM)?
Its RLU - background is 1291900 RLU.

What about the RLU - background (compound 1.372 nM) of the same molecule?
The RLU - background was 1521826 RLU.

What about the RLU - background (compound 4.115 nM) of the same molecule?
Its RLU - background is 1626762 RLU.

What about the RLU - background (compound 12.346 nM) of the same molecule?
Its RLU - background is 1589698 RLU.

And the RLU - background (compound 37.037 nM)?
Its RLU - background is 1312998 RLU.

And the RLU - background (compound 111.111 nM)?
Its RLU - background is 1258626 RLU.

What about the RLU - background (compound 333.333 nM) of the same molecule?
Its RLU - background is 1648306 RLU.

And the RLU - background (compound 1000.000 nM)?
The RLU - background was 1635488 RLU.

And the RLU - background (compound 3000.000 nM)?
Its RLU - background is 1625442 RLU.

And the RLU - background (compound 9000.000 nM)?
Its RLU - background is 1599712 RLU.
